Results taken from patent publication US20060159617A1, “Small technetium-99m and rhenium labeled agents and methods for imaging tissues, organs and tumors” (priority 2002, published 2006).

Experiments:
5HT1A receptor = biological target: T1, 5HT1A receptor (Rattus norvegicus, UniProt P19327); experiment: 5HT1A receptor competition binding assay with [3H]-8-OH-DPAT; conditions: apparent Ki, rat hippocampus
T1 construct: The brains were rapidly removed, and hippocampus, frontal cortex, hypothalamus, and striatum were hand-dissected on ice; from tissue; host or cells: male Sprague-Dawley rat hippocampus membranes
T1 sequence (P19327 1-422): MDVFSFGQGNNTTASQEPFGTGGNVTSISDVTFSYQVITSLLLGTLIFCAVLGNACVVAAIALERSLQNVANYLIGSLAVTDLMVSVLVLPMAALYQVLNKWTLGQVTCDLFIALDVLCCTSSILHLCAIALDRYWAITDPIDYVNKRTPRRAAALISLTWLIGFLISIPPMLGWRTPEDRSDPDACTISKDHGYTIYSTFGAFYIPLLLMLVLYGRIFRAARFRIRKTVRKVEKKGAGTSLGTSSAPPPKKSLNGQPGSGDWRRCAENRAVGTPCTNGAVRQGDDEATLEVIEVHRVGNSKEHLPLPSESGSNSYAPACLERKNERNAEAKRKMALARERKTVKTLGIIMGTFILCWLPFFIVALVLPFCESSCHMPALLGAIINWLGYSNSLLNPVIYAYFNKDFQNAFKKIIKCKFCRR
Procedure: The in vitro 5HT1A binding affinities of rhenium coordinated complexes were determined in a competition assay using rat hippocampus and high-affinity 5HT1A-ligand [^3H]-8-OH-DPAT (135 Ci/mmol, NEN Life Science Inc., Cambridge, Mass.). See, Brain Res. 1995, 673, 217-225.
Male Sprague-Dawley rats (weighing 150-170 g) were sacrificed using anesthesia agent isoflurane. The brains were rapidly removed, and hippocampus, frontal cortex, hypothalamus, and striatum were hand-dissected on ice and stored at −70° C. Tissue was thawed at room temperature and homogenized using a Brinkmann Polytron tissue disrupter in 50 volumes (wt/vol) of ice-cold 50 mM Tris-HCl buffer (pH 7.4). The suspension was centrifuged twice at 27,000 g for 20 min at 4° C. The membrane pellets were resuspended in 50 volumes of (wt/vol) Tris-HCl buffer and incubated at 37° C. for 20 min in a water bath, before a final centrifugation step (27,000 g; 20 min; 4° C.). The final tissue pellets were stored at −70° C. until assayed.
Twelve concentrations of the nonradioactive rhenium complexes ranging from 1×10^−11 to 1×10^−4 and protein samples (0.15 mg of membrane protein) were incubated with 1.5 nM [^3H]-8-OH-DPAT in a total volume of 0.25 mL of Tris-HCl (50 mM, pH 7.4, 10 mM MgSO4). Incubations were carried out for 60 min at 25° C. All assays were terminated by dilution with 5 mL of ice-cold Tris-HCl (10 mM), pH 7.4, and solution were filtered through glass-fiber filters (Whatman GF/F; presoaked in 0.5% polyethyleneimine for 30 min at 25° C.). Filters were then washed three times with 5 mL of ice-cold Tris-HCl (50 mM, pH 7.4), and counted in Hionic-Fluor cocktail (Packard, Groningen, the Netherlands). The corresponding IC50 values were determined with Origin 6.0 software (OriginLab, Northampton, Mass.) and were used for the calculation of the apparent Ki values with the Cheng-Prusoff equation. See, Biochem. Pharmacol. 1973, 22, 3099-3108.

σ2 receptor = biological target: T2, σ2 receptor (Rattus norvegicus, UniProt Q5U3Y7); experiment: σ2 receptor competition binding assay with [3H]-DTG, σ1 masked; conditions: apparent Ki, rat liver membranes
T2 construct: Rat liver membranes were prepared from male Sprague-Dawley rat livers as previously described; from tissue; host or cells: male Sprague-Dawley rat liver membranes
T2 sequence (Q5U3Y7 1-176): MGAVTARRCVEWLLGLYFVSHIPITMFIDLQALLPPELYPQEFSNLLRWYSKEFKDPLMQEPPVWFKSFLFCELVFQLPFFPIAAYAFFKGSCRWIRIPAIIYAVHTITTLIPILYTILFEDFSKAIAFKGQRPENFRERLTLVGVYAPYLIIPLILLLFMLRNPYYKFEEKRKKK
Procedure: Rat liver membranes were prepared from male Sprague-Dawley rat livers as previously described (Eur. J. Pharmacol.—Mol. Pharmacol. Sect. 1994, 268, 9-18). The in vitro σ2 receptor binding affinities of rhenium coordinated complexes were determined in a competition assay using rat livers and [^3H]-DTG (31 Ci/mmol, NEN Life Science Inc., Cambridge, Mass.) as radioligand in the presence of 10 μM 1-pyrrolidinylethyl 3,4-dichlorophenylacetate oxalate (ACT915 oxalate) to mask σ1 receptors (Bioorg. & Med. Chem. Lett. 2000, 10, 17-18). Competition assays were performed with twelve concentrations of the nonradioactive rhenium complexes ranging from 1×10^−10 to 1×10^−3 and protein samples (0.15 mg of membrane protein) in a total volume of 0.25 mL of Tris-HCl (50 mM, pH 8.0) for 120 min at 25° C. All other manipulations and data analysis were performed as described vide supra for the σ1-receptor assays.

## O=C1CN(CCCN2CCC(Cc3ccccc3)CC2)CC[S][Re]2(=[O])[S]CC[N]12 (stereo not shown) [Re-15]
5HT1A receptor
  Ki: 589 ± 70 nM
σ2 receptor
  Ki: 136 ± 22 nM

## COc1ccccc1C1CCN(CCCN2CC[S][Re]3(=[O])[S]CC[N]3C(=O)C2)CC1 (stereo not shown) [Re-16]
5HT1A receptor
  Ki: 4.5 ± 0.4 nM
σ2 receptor
  Ki: 336 ± 70 nM
